Experimental data published in the supplement of paper PMC10307832.

Key:
Test in all cases: relative viability (nuclei count vs DMSO), 5 days (fraction); higher = more cells survive
COR-L 105 = tested on: COR-L 105
How it was run: (§1)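 Relative viability divides the nuclei count in treated wells by that in vehicle wells. Lung cancer cell lines were seeded in 1536-well plates, dosed by pin tool the next day, and fixed and stained after 5 days in one step with final 0.05% Triton X-100, 1% formaldehyde and 1 ug/ml Hoechst. Dosing was a single drug or a fixed anchor-drug dose plus five library-drug doses (not always all listed) in √10 steps, and values are medians of duplicate plates imaged at 4×.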

COR-L23 = tested on: COR-L23
How it was run: as §1

HARA = tested on: HARA
How it was run: as §1

HCC-15 = tested on: HCC-15
How it was run: as §1

HOP-62 = tested on: HOP-62
How it was run: as §1

NCI-H1355 = tested on: NCI-H1355
How it was run: as §1

NCI-H1734 = tested on: NCI-H1734
How it was run: as §1

NCI-H1755 = tested on: NCI-H1755
How it was run: as §1

NCI-H1792 = tested on: NCI-H1792
How it was run: as §1

NCI-H1993 = tested on: NCI-H1993
How it was run: as §1

NCI-H2009 = tested on: NCI-H2009
How it was run: as §1

NCI-H2170 = tested on: NCI-H2170
How it was run: as §1

NCI-H2228 = tested on: NCI-H2228
How it was run: as §1

NCI-H2347 = tested on: NCI-H2347
How it was run: as §1

NCI-H358 = tested on: NCI-H358
How it was run: as §1

NCI-H647 = tested on: NCI-H647
How it was run: as §1

NCI-H838 = tested on: NCI-H838
How it was run: as §1

SK-MES-1 = tested on: SK-MES-1
How it was run: as §1

UMC-11 = tested on: UMC-11
How it was run: as §1

Cc1sc2c(c1C)C(c1ccc(Cl)cc1)=N[C@@H](CC(=O)OC(C)(C)C)c1nnc(C)n1-2 [JQ1] + C[C@@H](Oc1cc(-c2cnn(C3CCNCC3)c2)cnc1N)c1c(Cl)ccc(F)c1Cl [Crizotinib] (partner 1 µM)
relative viability (COR-L 105; first compound 0.04 µM): 0.705 | relative viability (COR-L 105; first compound 0.1265 µM): 0.25 | relative viability (COR-L 105; first compound 0.4 µM): 0.403 | relative viability (COR-L 105; first compound 1.265 µM): 0.245 | relative viability (COR-L 105; first compound 4 µM): 0.267 | relative viability (COR-L23; first compound 0.04 µM): 0.608 | relative viability (COR-L23; first compound 0.1265 µM): 0.381 | relative viability (COR-L23; first compound 0.4 µM): 0.46 | relative viability (COR-L23; first compound 1.265 µM): 0.248 | relative viability (COR-L23; first compound 4 µM): 0.12 | relative viability (HARA; first compound 0.04 µM): 0.945 | relative viability (HARA; first compound 0.1265 µM): 0.714 | relative viability (HARA; first compound 0.4 µM): 0.337 | relative viability (HARA; first compound 1.265 µM): 0.366 | relative viability (HARA; first compound 4 µM): 0.308 | relative viability (HCC-15; first compound 0.04 µM): 0.762 | relative viability (HCC-15; first compound 0.4 µM): 0.75 | relative viability (HCC-15; first compound 1.265 µM): 0.544 | relative viability (HCC-15; first compound 4 µM): 0.441 | relative viability (HOP-62; first compound 0.04 µM): 0.714 | relative viability (HOP-62; first compound 0.1265 µM): 0.711 | relative viability (HOP-62; first compound 0.4 µM): 0.299 | relative viability (HOP-62; first compound 1.265 µM): 0.119 | relative viability (HOP-62; first compound 4 µM): 0.11 | relative viability (NCI-H1355; first compound 0.04 µM): 1.01 | relative viability (NCI-H1355; first compound 0.1265 µM): 0.963 | relative viability (NCI-H1355; first compound 0.4 µM): 0.768 | relative viability (NCI-H1355; first compound 1.265 µM): 0.559 | relative viability (NCI-H1355; first compound 4 µM): 0.614 | relative viability (NCI-H1734; first compound 0.04 µM): 0.696 | relative viability (NCI-H1734; first compound 0.1265 µM): 0.659 | relative viability (NCI-H1734; first compound 0.4 µM): 0.569 | relative viability (NCI-H1734; first compound 1.265 µM): 0.449 | relative viability (NCI-H1734; first compound 4 µM): 0.331 | relative viability (NCI-H1755; first compound 0.04 µM): 0.899 | relative viability (NCI-H1755; first compound 0.1265 µM): 0.854 | relative viability (NCI-H1755; first compound 0.4 µM): 0.901 | relative viability (NCI-H1755; first compound 1.265 µM): 0.67 | relative viability (NCI-H1755; first compound 4 µM): 0.608 | relative viability (NCI-H1792; first compound 0.04 µM): 0.968 | relative viability (NCI-H1792; first compound 0.4 µM): 0.948 | relative viability (NCI-H1792; first compound 1.265 µM): 0.768 | relative viability (NCI-H1792; first compound 4 µM): 0.644 | relative viability (NCI-H1993; first compound 0.04 µM): 0.834 | relative viability (NCI-H1993; first compound 0.1265 µM): 0.774 | relative viability (NCI-H1993; first compound 0.4 µM): 0.728 | relative viability (NCI-H1993; first compound 1.265 µM): 0.799 | relative viability (NCI-H1993; first compound 4 µM): 0.698 | relative viability (NCI-H2009; first compound 0.04 µM): 0.969 | relative viability (NCI-H2009; first compound 0.1265 µM): 0.627 | relative viability (NCI-H2009; first compound 0.4 µM): 0.572 | relative viability (NCI-H2009; first compound 1.265 µM): 0.301 | relative viability (NCI-H2009; first compound 4 µM): 0.211 | relative viability (NCI-H2170; first compound 0.04 µM): 0.997 | relative viability (NCI-H2170; first compound 0.1265 µM): 1.12 | relative viability (NCI-H2170; first compound 0.4 µM): 0.72 | relative viability (NCI-H2170; first compound 1.265 µM): 0.599 | relative viability (NCI-H2170; first compound 4 µM): 0.517 | relative viability (NCI-H2228; first compound 0.04 µM): 0.455 | relative viability (NCI-H2228; first compound 0.1265 µM): 0.417 | relative viability (NCI-H2228; first compound 0.4 µM): 0.38 | relative viability (NCI-H2228; first compound 1.265 µM): 0.306 | relative viability (NCI-H2228; first compound 4 µM): 0.317 | relative viability (NCI-H2347; first compound 0.04 µM): 0.673 | relative viability (NCI-H2347; first compound 0.1265 µM): 0.549 | relative viability (NCI-H2347; first compound 0.4 µM): 0.646 | relative viability (NCI-H2347; first compound 1.265 µM): 0.555 | relative viability (NCI-H2347; first compound 4 µM): 0.431 | relative viability (NCI-H358; first compound 0.04 µM): 0.498 | relative viability (NCI-H358; first compound 0.1265 µM): 0.43 | relative viability (NCI-H358; first compound 0.4 µM): 0.473 | relative viability (NCI-H358; first compound 1.265 µM): 0.228 | relative viability (NCI-H358; first compound 4 µM): 0.25 | relative viability (NCI-H647; first compound 0.04 µM): 1.03 | relative viability (NCI-H647; first compound 0.1265 µM): 0.486 | relative viability (NCI-H647; first compound 0.4 µM): 0.276 | relative viability (NCI-H647; first compound 1.265 µM): 0.0835 | relative viability (NCI-H647; first compound 4 µM): 0.0629 | relative viability (NCI-H838; first compound 0.04 µM): 0.814 | relative viability (NCI-H838; first compound 0.1265 µM): 0.546 | relative viability (NCI-H838; first compound 0.4 µM): 0.415 | relative viability (NCI-H838; first compound 1.265 µM): 0.27 | relative viability (NCI-H838; first compound 4 µM): 0.172 | relative viability (SK-MES-1; first compound 0.04 µM): 0.873 | relative viability (SK-MES-1; first compound 0.1265 µM): 0.77 | relative viability (SK-MES-1; first compound 0.4 µM): 0.672 | relative viability (SK-MES-1; first compound 1.265 µM): 0.467 | relative viability (SK-MES-1; first compound 4 µM): 0.295 | relative viability (UMC-11; first compound 0.04 µM): 0.501 | relative viability (UMC-11; first compound 0.1265 µM): 0.659 | relative viability (UMC-11; first compound 0.4 µM): 0.345 | relative viability (UMC-11; first compound 1.265 µM): 0.0933 | relative viability (UMC-11; first compound 4 µM): 0.0983
